Columns and labels:
Assay in all cases: SelectScreen kinase profiling, SSBK LanthaScreen Binding SP Technology
[1] = molecular target: kinase named in conditions (Homo sapiens, UniProt O00311); details: CDC7/DBF4, 10 μM
Protocol: (§1) Kinase selectivity screening was performed by Thermo Fisher Scientific (Paisley, U.K.) in their SelectScreen Biochemical Kinase Profiling Service. Assay information and data are presented in the Supporting Information.
(§2) Kinase selectivity screening was performed by ThermoFisher Scientific (Paisley, U.K.) in their SelectScreenTM
(§3) Biochemical Kinase Profiling service .
(§4) Illustration reproduced courtesy of Cell Signaling technology, Inc.
(§5) (B) Illustration of phylogenetic tree of kinases screened.

[2] = molecular target: kinase named in conditions (Homo sapiens, UniProt O14936); details: CASK, 10 μM
Protocol: as §1, §2, §3, §4, §5

[3] = molecular target: kinase named in conditions (Homo sapiens, UniProt O94768); details: STK17B (DRAK2), 10 μM
Protocol: as §1, §2, §3, §4, §5

[4] = molecular target: kinase named in conditions (Homo sapiens, UniProt P00519, H396P); details: ABL1 H396P, 10 μM
Protocol: as §1, §2, §3, §4, §5

[5] = molecular target: kinase named in conditions (Homo sapiens, UniProt P00519, M351T); details: ABL1 M351T, 10 μM
Protocol: as §1, §2, §3, §4, §5

[6] = molecular target: kinase named in conditions (Homo sapiens, UniProt P10721, N822K); details: KIT N822K, 10 μM
Protocol: as §1, §2, §3, §4, §5

[7] = molecular target: kinase named in conditions (Homo sapiens, UniProt P22607, K650M); details: FGFR3 K650M, 10 μM
Protocol: as §1, §2, §3, §4, §5

[8] = molecular target: kinase named in conditions (Homo sapiens, UniProt P27037); details: ACVR2A, 10 μM
Protocol: as §1, §2, §3, §4, §5

[9] = molecular target: kinase named in conditions (Homo sapiens, UniProt P29320); details: EPHA3, 10 μM
Protocol: as §1, §2, §3, §4, §5

[10] = molecular target: kinase named in conditions (Homo sapiens, UniProt P30291); details: WEE1, 10 μM
Protocol: as §1, §2, §3, §4, §5

[11] = molecular target: kinase named in conditions (Homo sapiens, UniProt P36897); details: TGFBR1 (ALK5), 10 μM
Protocol: as §1, §2, §3, §4, §5

[12] = molecular target: kinase named in conditions (Homo sapiens, UniProt P42680); details: TEC, 10 μM
Protocol: as §1, §2, §3, §4, §5

[13] = molecular target: kinase named in conditions (Homo sapiens, UniProt P45985); details: MAP2K4 (MEK4), 10 μM
Protocol: as §1, §2, §3, §4, §5

[14] = molecular target: kinase named in conditions (Homo sapiens, UniProt P50750); details: 10 μM
Protocol: as §1, §2, §3, §4, §5

[15] = molecular target: kinase named in conditions (Homo sapiens, UniProt P52564); details: MAP2K6 (MKK6), 10 μM
Protocol: as §1, §2, §3, §4, §5

[16] = molecular target: kinase named in conditions (Homo sapiens, UniProt P53671); details: LIMK2, 10 μM
Protocol: as §1, §2, §3, §4, §5

[17] = molecular target: kinase named in conditions (Homo sapiens, UniProt P54646); details: 10 μM
Protocol: as §1, §2, §3, §4, §5

[18] = molecular target: kinase named in conditions (Homo sapiens, UniProt Q02750, S218D/S222D); details: MAP2K1 (MEK1) S218D S222D, 10 μM
Protocol: as §1, §2, §3, §4, §5

[19] = molecular target: kinase named in conditions (Homo sapiens, UniProt Q13131); details: 10 μM
Protocol: as §1, §2, §3, §4, §5

[20] = molecular target: kinase named in conditions (Homo sapiens, UniProt Q13555); details: CAMK2G (CaMKII gamma), 10 μM
Protocol: as §1, §2, §3, §4, §5

[21] = molecular target: kinase named in conditions (Homo sapiens, UniProt Q13873); details: BMPR2, 10 μM
Protocol: as §1, §2, §3, §4, §5

[22] = molecular target: kinase named in conditions (Homo sapiens, UniProt Q14004); details: read-out: % Inhibition mean
Protocol: as §1, §2, §3, §4, §5

[23] = molecular target: kinase named in conditions (Homo sapiens, UniProt Q86SG6); details: NEK8, 10 μM
Protocol: as §1, §2, §3, §4, §5

[24] = molecular target: kinase named in conditions (Homo sapiens, UniProt Q86UE8); details: TLK2, 10 μM
Protocol: as §1, §2, §3, §4, §5

[25] = molecular target: kinase named in conditions (Homo sapiens, UniProt Q86Y07); details: VRK2, 10 μM
Protocol: as §1, §2, §3, §4, §5

[26] = molecular target: kinase named in conditions (Homo sapiens, UniProt Q8IWQ3); details: BRSK2, 10 μM
Protocol: as §1, §2, §3, §4, §5

[27] = molecular target: kinase named in conditions (Homo sapiens, UniProt Q8IYT8); details: ULK2, 10 μM
Protocol: as §1, §2, §3, §4, §5

[28] = molecular target: kinase named in conditions (Homo sapiens, UniProt Q99558); details: MAP3K14 (NIK), 10 μM
Protocol: as §1, §2, §3, §4, §5

[29] = molecular target: kinase named in conditions (Homo sapiens, UniProt Q9H2K8); details: TAOK3 (JIK), 10 μM
Protocol: as §1, §2, §3, §4, §5

[30] = molecular target: kinase named in conditions (Homo sapiens, UniProt Q9HAZ1); details: CLK4, 10 μM
Protocol: as §1, §2, §3, §4, §5

[31] = molecular target: kinase named in conditions (Homo sapiens, UniProt Q9NY57); details: STK32B (YANK2), 10 μM
Protocol: as §1, §2, §3, §4, §5

[32] = molecular target: kinase named in conditions (Homo sapiens, UniProt Q9UBE8); details: NLK, 10 μM
Protocol: as §1, §2, §3, §4, §5

[33] = molecular target: kinase named in conditions (Homo sapiens, UniProt Q9UM73, F1174L); details: ALK F1174L, 10 μM
Protocol: as §1, §2, §3, §4, §5

[34] = molecular target: kinase named in conditions (Homo sapiens, UniProt Q9Y572); details: RIPK3, 10 μM
Protocol: as §1, §2, §3, §4, §5

kinase named in conditions (Homo sapiens, UniProt Q13131), sequence (Q13131 whole entry): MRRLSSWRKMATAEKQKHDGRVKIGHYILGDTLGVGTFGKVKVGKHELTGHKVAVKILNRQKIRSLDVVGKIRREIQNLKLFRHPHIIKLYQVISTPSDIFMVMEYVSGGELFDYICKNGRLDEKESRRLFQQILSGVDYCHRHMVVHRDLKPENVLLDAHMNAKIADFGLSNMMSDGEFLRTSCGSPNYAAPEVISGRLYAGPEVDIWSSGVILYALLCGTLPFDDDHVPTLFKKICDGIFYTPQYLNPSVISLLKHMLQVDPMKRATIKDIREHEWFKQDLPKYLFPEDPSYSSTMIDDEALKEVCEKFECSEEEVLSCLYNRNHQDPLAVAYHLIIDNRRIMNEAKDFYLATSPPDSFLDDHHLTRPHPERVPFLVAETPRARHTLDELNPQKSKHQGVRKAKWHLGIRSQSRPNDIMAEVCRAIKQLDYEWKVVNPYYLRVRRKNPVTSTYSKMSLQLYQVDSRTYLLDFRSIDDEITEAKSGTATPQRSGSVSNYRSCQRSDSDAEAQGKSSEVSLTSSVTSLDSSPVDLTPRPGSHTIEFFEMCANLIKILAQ
kinase named in conditions (Homo sapiens, UniProt P54646), sequence (P54646 whole entry): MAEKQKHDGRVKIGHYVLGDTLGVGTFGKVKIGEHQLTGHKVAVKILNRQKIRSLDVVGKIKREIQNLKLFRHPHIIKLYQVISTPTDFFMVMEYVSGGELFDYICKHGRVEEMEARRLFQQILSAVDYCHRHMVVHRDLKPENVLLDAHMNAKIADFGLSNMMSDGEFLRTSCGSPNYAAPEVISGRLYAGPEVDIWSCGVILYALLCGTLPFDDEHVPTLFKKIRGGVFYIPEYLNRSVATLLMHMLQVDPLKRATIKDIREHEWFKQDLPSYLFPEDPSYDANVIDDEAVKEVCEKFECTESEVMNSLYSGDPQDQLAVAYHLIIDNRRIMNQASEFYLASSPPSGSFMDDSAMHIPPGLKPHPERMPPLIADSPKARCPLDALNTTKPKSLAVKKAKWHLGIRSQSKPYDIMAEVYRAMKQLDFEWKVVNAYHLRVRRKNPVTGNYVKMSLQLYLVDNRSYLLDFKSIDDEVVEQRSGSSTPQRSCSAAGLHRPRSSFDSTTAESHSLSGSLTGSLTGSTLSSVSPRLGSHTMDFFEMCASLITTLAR
kinase named in conditions (Homo sapiens, UniProt P50750), sequence (P50750 whole entry): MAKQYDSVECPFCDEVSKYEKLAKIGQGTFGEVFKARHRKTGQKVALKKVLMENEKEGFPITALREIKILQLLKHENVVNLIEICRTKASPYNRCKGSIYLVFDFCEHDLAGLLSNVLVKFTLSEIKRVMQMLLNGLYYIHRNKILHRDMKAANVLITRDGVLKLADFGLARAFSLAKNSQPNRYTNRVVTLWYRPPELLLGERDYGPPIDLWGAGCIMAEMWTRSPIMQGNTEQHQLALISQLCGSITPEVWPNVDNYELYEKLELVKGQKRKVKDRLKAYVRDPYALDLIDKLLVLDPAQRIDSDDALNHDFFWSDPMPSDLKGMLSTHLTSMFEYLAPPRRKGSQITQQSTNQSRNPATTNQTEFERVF
kinase named in conditions (Homo sapiens, UniProt Q14004), sequence (Q14004 whole entry): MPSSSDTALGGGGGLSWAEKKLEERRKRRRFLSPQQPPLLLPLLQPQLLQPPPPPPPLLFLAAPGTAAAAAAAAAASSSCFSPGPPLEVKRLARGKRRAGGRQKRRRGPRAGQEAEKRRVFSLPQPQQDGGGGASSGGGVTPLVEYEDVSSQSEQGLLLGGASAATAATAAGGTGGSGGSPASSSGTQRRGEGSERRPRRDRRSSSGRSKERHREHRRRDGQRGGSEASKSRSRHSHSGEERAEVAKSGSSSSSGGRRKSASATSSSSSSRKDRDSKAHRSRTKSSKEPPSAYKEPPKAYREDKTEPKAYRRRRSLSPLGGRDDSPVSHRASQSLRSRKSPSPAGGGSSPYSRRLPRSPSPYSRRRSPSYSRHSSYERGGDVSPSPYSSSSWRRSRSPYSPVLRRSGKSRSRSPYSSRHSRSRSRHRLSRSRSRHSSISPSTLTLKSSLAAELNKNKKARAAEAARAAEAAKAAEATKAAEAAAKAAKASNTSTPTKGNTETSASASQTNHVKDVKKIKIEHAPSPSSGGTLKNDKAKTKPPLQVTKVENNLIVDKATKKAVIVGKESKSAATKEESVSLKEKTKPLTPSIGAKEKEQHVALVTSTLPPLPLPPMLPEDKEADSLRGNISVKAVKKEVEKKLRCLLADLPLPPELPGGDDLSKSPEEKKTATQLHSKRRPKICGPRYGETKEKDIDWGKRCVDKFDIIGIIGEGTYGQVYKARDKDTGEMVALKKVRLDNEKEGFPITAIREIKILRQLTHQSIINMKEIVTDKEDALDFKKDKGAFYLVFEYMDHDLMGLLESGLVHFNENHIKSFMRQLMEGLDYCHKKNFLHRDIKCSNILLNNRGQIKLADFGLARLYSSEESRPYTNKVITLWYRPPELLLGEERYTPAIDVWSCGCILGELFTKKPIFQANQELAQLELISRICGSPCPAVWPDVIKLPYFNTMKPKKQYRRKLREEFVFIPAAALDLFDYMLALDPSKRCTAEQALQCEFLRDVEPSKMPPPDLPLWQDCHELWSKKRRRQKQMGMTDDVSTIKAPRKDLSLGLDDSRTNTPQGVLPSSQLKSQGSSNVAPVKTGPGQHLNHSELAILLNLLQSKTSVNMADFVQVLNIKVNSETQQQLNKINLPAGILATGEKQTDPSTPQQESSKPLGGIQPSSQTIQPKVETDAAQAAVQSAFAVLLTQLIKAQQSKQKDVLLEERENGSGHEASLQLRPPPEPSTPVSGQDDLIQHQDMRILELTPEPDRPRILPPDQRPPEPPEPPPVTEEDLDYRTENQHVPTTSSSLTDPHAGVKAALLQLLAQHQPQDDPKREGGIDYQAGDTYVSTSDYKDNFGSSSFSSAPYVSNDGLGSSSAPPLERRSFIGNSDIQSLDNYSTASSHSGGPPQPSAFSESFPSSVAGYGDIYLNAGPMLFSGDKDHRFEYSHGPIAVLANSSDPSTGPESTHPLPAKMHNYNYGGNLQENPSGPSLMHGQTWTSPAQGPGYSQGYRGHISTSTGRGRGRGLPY
kinase named in conditions (Homo sapiens, UniProt P30291), sequence (P30291 whole entry): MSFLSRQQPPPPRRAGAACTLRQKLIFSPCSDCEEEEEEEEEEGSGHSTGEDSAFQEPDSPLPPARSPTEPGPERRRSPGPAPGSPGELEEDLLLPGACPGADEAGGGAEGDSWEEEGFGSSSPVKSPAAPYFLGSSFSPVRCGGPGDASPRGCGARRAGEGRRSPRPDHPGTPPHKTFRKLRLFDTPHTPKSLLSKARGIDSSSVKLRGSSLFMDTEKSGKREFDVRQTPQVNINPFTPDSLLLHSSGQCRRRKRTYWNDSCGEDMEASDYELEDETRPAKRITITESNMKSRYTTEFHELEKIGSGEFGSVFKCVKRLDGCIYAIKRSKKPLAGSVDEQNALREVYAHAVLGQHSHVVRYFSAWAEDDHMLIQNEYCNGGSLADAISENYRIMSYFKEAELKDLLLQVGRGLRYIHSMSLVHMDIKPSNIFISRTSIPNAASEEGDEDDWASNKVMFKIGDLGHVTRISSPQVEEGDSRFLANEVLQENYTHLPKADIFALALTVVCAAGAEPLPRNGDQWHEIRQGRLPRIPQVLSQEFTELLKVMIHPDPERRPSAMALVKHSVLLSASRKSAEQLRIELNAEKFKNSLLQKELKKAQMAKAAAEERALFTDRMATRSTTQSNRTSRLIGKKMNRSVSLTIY
kinase named in conditions (Homo sapiens, UniProt Q86SG6), sequence (Q86SG6 whole entry): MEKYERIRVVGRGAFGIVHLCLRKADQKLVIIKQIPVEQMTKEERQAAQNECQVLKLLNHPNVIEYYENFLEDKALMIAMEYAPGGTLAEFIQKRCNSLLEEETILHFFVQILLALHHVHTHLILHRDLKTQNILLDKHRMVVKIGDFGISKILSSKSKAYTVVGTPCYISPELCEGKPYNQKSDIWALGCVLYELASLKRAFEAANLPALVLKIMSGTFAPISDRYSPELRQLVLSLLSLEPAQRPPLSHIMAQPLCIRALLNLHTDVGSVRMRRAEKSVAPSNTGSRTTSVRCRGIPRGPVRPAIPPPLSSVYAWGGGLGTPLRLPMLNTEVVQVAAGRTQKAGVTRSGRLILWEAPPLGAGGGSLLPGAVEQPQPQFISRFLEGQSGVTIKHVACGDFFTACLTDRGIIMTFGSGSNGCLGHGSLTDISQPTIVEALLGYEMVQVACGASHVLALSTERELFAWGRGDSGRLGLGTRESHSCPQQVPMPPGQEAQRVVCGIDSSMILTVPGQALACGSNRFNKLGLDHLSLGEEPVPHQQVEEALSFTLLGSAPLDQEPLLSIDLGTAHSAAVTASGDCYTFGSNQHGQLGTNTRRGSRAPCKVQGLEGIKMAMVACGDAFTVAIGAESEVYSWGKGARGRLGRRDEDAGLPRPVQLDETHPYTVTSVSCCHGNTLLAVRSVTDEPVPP
kinase named in conditions (Homo sapiens, UniProt P27037), sequence (P27037 20-513): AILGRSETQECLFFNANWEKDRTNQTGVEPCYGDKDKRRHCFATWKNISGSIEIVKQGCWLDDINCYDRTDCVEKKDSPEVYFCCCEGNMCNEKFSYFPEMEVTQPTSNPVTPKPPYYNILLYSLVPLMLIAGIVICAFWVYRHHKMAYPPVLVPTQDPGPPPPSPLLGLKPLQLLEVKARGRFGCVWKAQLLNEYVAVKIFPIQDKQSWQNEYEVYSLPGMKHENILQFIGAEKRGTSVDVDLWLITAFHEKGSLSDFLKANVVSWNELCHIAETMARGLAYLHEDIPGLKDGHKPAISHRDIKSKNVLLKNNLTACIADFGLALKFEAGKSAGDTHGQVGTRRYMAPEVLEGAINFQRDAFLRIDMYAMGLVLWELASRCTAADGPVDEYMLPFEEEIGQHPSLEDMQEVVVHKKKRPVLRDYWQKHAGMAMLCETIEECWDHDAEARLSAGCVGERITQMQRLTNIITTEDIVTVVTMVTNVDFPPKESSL

`FC(F)(F)c1c(Cl)ccc(-n2ccnn2)c1Cl` [8l, 1-(2,4-Dichloro-3-(trifluoromethyl)phenyl)-1H-1,2,3-triazole] showed an inhibition at 10 µM [1] of -15%, an inhibition at 10 µM [2] of 18% and an inhibition at 10 µM [3] of 14%. It also gave an inhibition at 10 µM [4] of 7%, an inhibition at 10 µM [5] of 24% and an inhibition at 10 µM [6] of -3%. The inhibition at 10 µM [7] was 2%, the inhibition at 10 µM [8] was 4% and the inhibition at 10 µM [9] was 7%. It also gave an inhibition at 10 µM [10] of 9%, an inhibition at 10 µM [11] of -1% and an inhibition at 10 µM [12] of 0%. For the same compound, the inhibition at 10 µM [13] was -2%, the inhibition at 10 µM ([14]; CDK9 (Inactive)) was -5% and the inhibition at 10 µM ([14]; CDK9/cyclin K) was -10%. For the same compound, the inhibition at 10 µM [15] was 2%, the inhibition at 10 µM [16] was -3% and the inhibition at 10 µM ([17]; AMPK (A2/B2/G1)) was 12%. For the same compound, the inhibition at 10 µM ([17]; AMPK (A2/B2/G2)) was 24%, the inhibition at 10 µM [18] was 2% and the inhibition at 10 µM ([19]; AMPK (A1/B1/G2)) was -13%. For the same compound, the inhibition at 10 µM ([19]; AMPK (A1/B1/G3)) was -4%, the inhibition at 10 µM ([19]; AMPK (A1/B2/G1)) was 6% and the inhibition at 10 µM [20] was 1%. For the same compound, the inhibition at 10 µM [21] was 13%, the inhibition at 10 µM [22] was 38% and the inhibition at 10 µM [23] was 2%. For the same compound, the inhibition at 10 µM [24] was 11%, the inhibition at 10 µM [25] was -11% and the inhibition at 10 µM [26] was 4%. For the same compound, the inhibition at 10 µM [27] was 8%, the inhibition at 10 µM [28] was 16% and the inhibition at 10 µM [29] was -5%. For the same compound, the inhibition at 10 µM [30] was 3%, the inhibition at 10 µM [31] was 12% and the inhibition at 10 µM [32] was 5%. For the same compound, the inhibition at 10 µM [33] was 1% and the inhibition at 10 µM [34] was 10%.
